The record followed here is patent US12492195B2, “Preparation method for and crystal form of 3-aryloxy-3-five-membered heteroaryl-propylamine compound” (Zhangzhou Pien Tze Huang Pharmaceutical Co., Ltd., priority 2020, dated 2025).

Data set [1] can be described thus: Pharmacokinetic test in rat. The note with it: PO 10 mg/kg. Type of data set: in vivo. The method, then: A certain amount of sample was weighed and dissolved in deionized water to prepare 1 mg/mL of solution. Male SD rats were used as test animals. The dose of single intravenous (IV) injection was 2 mg/kg, and the dose of oral (PO) administration was 10 mg/kg. Each group had three rats. The rats in oral group were fasted for 10-14 hours before administration, and were fed 4 hours after administration. Blood collection time points of animals were before administration, and 5 min, 15 min, 30 min, 1 h, 2 h, 4 h, 6 h, 8 h, and 24 h after administration for intravenous administration; before administration, and 15 min, 30 min, 1 h, 2 h, 4 h, 6 h, 8 h and 24 h after administration for oral administration. About 0.25 mL of blood was collected via the jugular vein from each animal, and heparin sodium was used for anticoagulation. After collecting the blood samples, the blood samples were placed on ice and centrifuged to separate the plasma (centrifugation conditions: 8000 rpm, 6 min, 4° C.). The collected plasma was stored at −80° C. before analysis. 50 μL of plasma sample was taken into 1.5 mL centrifuge tube, 250 μL of internal standard solution was added, and the same volume of methanol rather than internal standard solution was added in the blank group. […]

The next data set deals with T1, TRPM8 (Homo sapiens, UniProt Q7Z2W7).
T1 construct: expressed in transfected cells
Briefly: Manual patch clamp detection on TRPM8 channel. Type of data set: cell-based. The method, then:
TRPM8 cells were cultured in a cell culture dish with a diameter of 35 mm, placed in an incubator in 5% CO2 at 37° C., and passaged at a ratio of 1:5 every 48 hours. The formula of medium was 90% DMEM (Invitrogen), 10% fetal bovine serum (Gibco), 2 mM L-glutamine, 50 μg/mL Hygromycin B (Invitrogen) and 5 μg/mL Blasticidine HCl (Invitrogen). Before electrophysiological patch clamp experiment, the cell culture medium was replaced with medium containing 1 μg/mL doxycycline for at least 16 hours to induce TRPM8 expression.
On the day of the experiment, the cell culture medium was aspirated, the cell were rinsed once with extracellular fluid, and then 0.25% Trypsin-EDTA (Invitrogen) solution was added, and digested at room temperature for 1-2 minutes. The digestion solution was aspirated, the cell were resuspended with extracellular fluid, and transferred to the experimental dish for electrophysiological recording for further experiment.
Preparation of menthol: 100.00 mM of DMSO stock solution of menthol was added to the extracellular solution, diluting 1000-fold to 100.00 μM of menthol solution.
Preparation of AMTB: 5 μL of DMSO stock solution (20.00 mM) of AMTB was added to 4995 μL of menthol solution (100.00 uM), diluting 1000-fold to obtain the final concentration of 20.00 μM AMTB to be tested.
Preparation of IC-1: 20.00 mM or 10.00 mM of stock solution of IC-1 was taken and added to the agonist solution of the corresponding channel, diluting 1000 or 2000-fold to the final concentration of 10.00 μM of […] solution to be tested.
(§1) HEK293 cells stably expressing TRP channels, the corresponding agonist-induced channel current was recorded by whole-cell patch clamp technique at room temperature. […] Clamp voltages and data recording were controlled and recorded by a computer using pClamp 11 software with the sampling frequency of 10 kHz and the filtering frequency of 2 kHz. […] After the current was evoked for more than 40 s and no attenuation was determined, the dosing process started. […]

A further data set deals with T2, TRPV1 (Homo sapiens, UniProt Q8NER1).
T2 construct: expressed in transfected cells
Briefly: Manual patch clamp detection on TRPV1 channel. Format: cell-based. Particulars: HEK293, Capsaicin-induced current. The method, then: TRPV1 cells were cultured in a cell culture dish with a diameter of 35 mm, placed in a 37° C., 5% CO2 incubator, and passaged at a ratio of 1:5 every 48 hours. Medium formula: 90% DMEM (Invitrogen), 10% Fetal bovine serum (Gibco). 2 mM L-glutamine, 50 μg/mL Hygromycin B (Invitrogen) and 5 μg/mL Blasticidine HCl (Invitrogen). Before electrophysiological patch clamp experiments, the cell culture medium was replaced with medium containing 1 μg/mL Doxycycline for at least 16 hours to induce the expression of TRPV1.
On the day of the experiment, the cell culture medium was aspirated, the cell were rinsed once with extracellular fluid, and then 0.25% Trypsin-EDTA (Invitrogen) solution was added, and digested at room temperature for 1-2 minutes. The digestion solution was aspirated, the cell were resuspended with extracellular fluid, and transferred to the experimental dish for electrophysiological recording for further experiment. […]
as §1
In general terms: In patch-clamp work, channel activity is measured electrically.

Some results are limits rather than exact numbers.

T1 sequence (Q7Z2W7 whole entry, species assumed): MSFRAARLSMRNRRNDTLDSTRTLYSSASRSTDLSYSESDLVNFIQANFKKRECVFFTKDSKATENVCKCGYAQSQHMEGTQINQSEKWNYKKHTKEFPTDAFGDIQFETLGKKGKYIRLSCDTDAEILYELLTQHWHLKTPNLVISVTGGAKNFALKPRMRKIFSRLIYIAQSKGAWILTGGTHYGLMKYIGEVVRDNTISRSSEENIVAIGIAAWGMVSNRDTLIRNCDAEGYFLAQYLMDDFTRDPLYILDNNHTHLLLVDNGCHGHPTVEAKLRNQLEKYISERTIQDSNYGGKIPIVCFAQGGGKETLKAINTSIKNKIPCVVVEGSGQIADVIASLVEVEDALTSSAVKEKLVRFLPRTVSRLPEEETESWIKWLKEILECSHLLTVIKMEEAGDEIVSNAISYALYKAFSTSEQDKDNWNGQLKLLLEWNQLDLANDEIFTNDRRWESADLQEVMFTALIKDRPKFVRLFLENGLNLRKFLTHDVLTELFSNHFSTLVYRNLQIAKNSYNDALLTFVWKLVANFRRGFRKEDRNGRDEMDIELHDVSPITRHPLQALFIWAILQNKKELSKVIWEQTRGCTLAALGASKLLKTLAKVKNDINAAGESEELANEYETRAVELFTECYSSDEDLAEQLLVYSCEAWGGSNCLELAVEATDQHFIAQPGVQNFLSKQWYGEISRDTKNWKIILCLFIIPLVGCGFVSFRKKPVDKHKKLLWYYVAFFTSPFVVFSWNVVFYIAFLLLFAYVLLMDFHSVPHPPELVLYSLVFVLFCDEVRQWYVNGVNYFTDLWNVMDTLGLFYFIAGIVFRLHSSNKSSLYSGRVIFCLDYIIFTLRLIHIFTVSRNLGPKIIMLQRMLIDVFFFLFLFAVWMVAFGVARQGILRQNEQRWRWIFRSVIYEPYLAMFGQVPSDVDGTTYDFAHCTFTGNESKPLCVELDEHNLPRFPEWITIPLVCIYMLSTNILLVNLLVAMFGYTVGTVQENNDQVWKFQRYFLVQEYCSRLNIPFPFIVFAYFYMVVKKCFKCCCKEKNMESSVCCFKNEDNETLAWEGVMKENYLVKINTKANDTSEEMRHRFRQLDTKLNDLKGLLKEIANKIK
T2 sequence (Q8NER1 whole entry, species assumed): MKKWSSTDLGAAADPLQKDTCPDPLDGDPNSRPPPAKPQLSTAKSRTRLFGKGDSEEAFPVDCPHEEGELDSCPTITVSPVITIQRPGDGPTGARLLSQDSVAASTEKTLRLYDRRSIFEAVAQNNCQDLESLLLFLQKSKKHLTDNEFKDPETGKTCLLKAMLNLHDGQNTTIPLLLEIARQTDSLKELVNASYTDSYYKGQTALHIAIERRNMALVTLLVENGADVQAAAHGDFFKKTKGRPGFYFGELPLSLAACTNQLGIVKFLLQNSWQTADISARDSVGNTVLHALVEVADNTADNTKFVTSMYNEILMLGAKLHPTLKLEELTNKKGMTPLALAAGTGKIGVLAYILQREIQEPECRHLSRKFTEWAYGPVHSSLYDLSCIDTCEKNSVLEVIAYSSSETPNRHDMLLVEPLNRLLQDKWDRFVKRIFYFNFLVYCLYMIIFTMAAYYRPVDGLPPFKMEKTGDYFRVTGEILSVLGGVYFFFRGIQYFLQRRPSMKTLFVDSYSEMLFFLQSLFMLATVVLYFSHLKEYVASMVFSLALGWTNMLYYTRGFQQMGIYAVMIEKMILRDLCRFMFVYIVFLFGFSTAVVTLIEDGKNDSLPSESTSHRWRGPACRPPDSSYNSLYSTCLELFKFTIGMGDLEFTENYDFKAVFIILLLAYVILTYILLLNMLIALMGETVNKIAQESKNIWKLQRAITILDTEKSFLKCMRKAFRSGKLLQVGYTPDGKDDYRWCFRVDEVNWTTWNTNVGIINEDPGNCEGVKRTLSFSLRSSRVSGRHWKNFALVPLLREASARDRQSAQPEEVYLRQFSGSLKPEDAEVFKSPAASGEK

For `CNCC[C@H](Oc1cccc2ccccc12)c1cccs1` [Duloxetine (S configuration), Duloxetine, reference compound], the “Tmax” value in data set [1] was 50 min.
As to `CNCC[C@H](Oc1cccc2ccoc12)c1cccs1` [IC-1, (S)-3-(Benzofuran-7-yloxy)-N-methyl-3-(thiophen-2-yl)propan-1-amine], the inhibition at 10 µM at TRPM8 (10.00 μM, HEK293, menthol-induced current) stood at 41.1%; at TRPV1, 22.5%. Besides, the half-inhibitory concentration (IC50) at TRPM8 (read-out: IC50 of the compound to TRPM8) was > 10 µM.

The term Tmax denotes the time at which the peak concentration occurs. The inhibition is the percentage by which the read-out fell short of the control. Lower therefore signals little suppression. As usually defined, the IC50 is the concentration at which inhibition is half-maximal.
